From article PMC8362065, “Easily Available, Amphiphilic Diiron Cyclopentadienyl Complexes Exhibit in Vitro Anticancer Activity in 2D and 3D Human Cancer Cells through Redox Modulation Triggered by CO Release” (Chemistry (Weinheim an Der Bergstrasse, Germany), 2021)
Where two headings read alike, the source gives them in different places.

How the values were obtained:
MCF‐7 ADR cells = assay: MTT assay, multidrug-resistant cancer cell model overexpressing P-gp; type: cell-based, human; conditions: for IC50: MCF‐7 ADR cells, 72 h, MTT; for RF=IC50 (resistant cells)/IC50 (wild‐type cells): MCF‐7 ADR vs MCF‐7, 72 h
Procedure: The antiproliferative activity was also investigated in a multidrug‐resistant cancer cell model overexpressing P‐gp (MCF‐7 ADR cells).
(§1) Compounds [2B]BF4, [2C]CF3SO3, [2D]CF3SO3 and [3F]CF3SO3 were dissolved in water while the other compounds were dissolved in the minimum DMSO amount prior to cell culture testing. A calculated amount of the stock drug DMSO solution was added to the cell culture media to reach a final maximum DMSO concentration of 0.5 %, which had no effects on cell viability.
(§2) Cell cultures. Human colon (HCT‐15), pancreatic (PSN‐1) and breast (MCF‐7) carcinoma cell lines along with human melanoma cells (A375) were obtained from American Type Culture Collection (ATCC, Rockville, MD). Embryonic kidney HEK293 cells were obtained from the European Collection of Cell Cultures (ECACC, Salisbury, UK). Human ovarian 2008 cancer cells were kindly provided by Prof. G. Marverti (Dept. of Biomedical Science of Modena University, Italy). MCF‐7 ADR cells were kindly provided by Prof. N. Colabufo (Dept. Pharmacy, University of Bari, Italy). Cell lines were maintained in the logarithmic phase at 37 °C in a 5 % CO2 atmosphere using the following culture media containing 10 % fetal calf serum (Euroclone, Milan, Italy), antibiotics (50 units/mL penicillin and 50 μg/mL streptomycin) and 2 mM L‐glutamine: i) RPMI‐1640 medium (Euroclone, Milan, Italy) for PSN‐1, 2008, HCT‐15, MCF‐7 and MCF‐7 ADR cells; ii) DMEM for A375 and HEK293 cells.
(§3) MTT assay. The growth inhibitory effect towards tumour cells was evaluated by means of MTT assay as previously described.[57] Briefly, 3–8×10^3 cells/well, dependent upon the growth characteristics of the cell line, were seeded in 96‐well microplates in growth medium (100 μL). After 24 h, the medium was removed and replaced with a fresh one containing the compound to be studied at the appropriate concentration. Triplicate cultures were established for each treatment. After 24 or 72 h, each well was treated with 10 μL of a 5 mg/mL MTT saline solution, and following 5 h of incubation, 100 μL of a sodium dodecyl sulfate (SDS) solution in HCl 0.01 M were added. After an overnight incubation, cell growth inhibition was detected by measuring the absorbance of each well at 570 nm using a Bio‐Rad 680 microplate reader. Mean absorbance for each drug dose was expressed as a percentage of the control untreated well absorbance and plotted against drug concentration. IC50 values, the drug concentrations that reduce the mean absorbance at 570 nm to 50 % of those in the untreated control wells, were calculated by the four‐parameter logistic (4‐PL) model. Evaluation was based on means from at least four independent experiments.

[1] = tested on: Human pancreatic (PSN‐1) carcinoma cell line; assay: MTT assay, 2D cell culture; type: cell-based
Procedure: as §1, §2, §3

[2] = tested on: Human ovarian 2008 cancer cells; assay: MTT assay, 2D cell culture; type: cell-based; conditions: 2008 cells, 72 h
Procedure: as §1, §2, §3

[3] = tested on: Human breast (MCF‐7) carcinoma cell line; assay: MTT assay, 2D cell culture; type: cell-based; conditions: MCF‐7 cells, 72 h
Procedure: as §1, §2, §3

[4] = tested on: human melanoma cells (A375); assay: MTT assay, 2D cell culture; type: cell-based; conditions: 72 h
Procedure: as §1, §2, §3

[5] = tested on: Human colon (HCT‐15) carcinoma cell line; assay: MTT assay, 2D cell culture; type: cell-based; conditions: HCT‐15 cells, 72 h
Procedure: as §1, §2, §3

[6] = Carbon monoxide release in 5 % MeOH aqueous solution, headspace GC-TCD; type: physicochemical; conditions: 37 °C; for eq. CO released: eqCO = nCO/nFe; for % residual complex: 48 h, calculated as [1 – Σ(eqCO)/3]∙100
Procedure: Carbon monoxide release. A stock solution was prepared by dissolving the selected Fe compound (ca. 10 mg) in MeOH (0.50 mL) then diluting with H2O up to 10.0 mL total volume (5 % v/v MeOH). Next, 3.20 mL of the solution (n Fe ca. 6 ⋅ 10^−3 mmol) and a 7x2 mm stir bar were transferred into a 4‐mL screw top vial (1.72 mL neat gas phase volume). The mixture was sealed with a screw cap with a PTFE/silicone septum and heated at 37 °C for 24 h under stirring. Afterwards, the headspace was sampled with a gas tight microsyringe ([…]) and analysed by GC‐TCD. Therefore, the vial was vented, sealed and heated for further 24 h, and GC‐TCD analysis was repeated. The amount of released CO (νCO, mmol) was calculated based on a calibration curve obtained from analyses of known air/CO mixtures (1–10 % v/v), and the number of equivalents released over a 24 h period refers to the initial amount of compound (eqCO=n CO/n Fe). The residual amount of starting diiron complex after 48 h was calculated by assuming the release of 3 equivalents of CO per mole and the total amount of CO released.

[7] = tested on: TrxR in human pancreatic PSN‐1 cancer cells; assay: TrxR activity in treated cells, NADPH-dependent reduction of DTNB; type: cell-based; conditions: PSN‐1 cells, 25 μM, 24 h
Procedure: Figure 6 Effects of compounds [2C]CF3SO3, [2D]CF3SO3 and Auranofin as positive control on TrxR in human pancreatic cells. […] Afterwards, cells were washed twice with PBS and lysed. TrxR activity was tested by measuring the NADPH‐dependent reduction of DTNB. * P<0.05.

[8] = tested on: human cancer cell line panel (2008, HCT‐15, PSN‐1, MCF‐7, A375); assay: MTT assay, average over the human cancer cell line panel; type: cell-based; conditions: average over tested cancer cell lines, 72 h
Procedure: The diiron complexes [2A]^+, [2C–E]^+, [3F–G]^+, [5H]^+ (as CF3SO3 salts) and [2B]^+, [4G]^+ (as BF4 salts) were tested for their cytotoxic potential by means of the MTT assay, as reported in the Experimental Section. The most convenient counter anion in terms of preparation and handling/storage was chosen in each case; in particular, [2C]CF3SO3 was included in the study, while [2C]Cl was excluded, being highly moisture sensitive and thus affecting the accuracy of the weighting operation. The in‐house human cancer cell line panel contains examples of ovarian (2008), colon (HCT‐15), pancreatic (PSN‐1), and breast (MCF‐7) cancers as well as of melanoma (A375). Cisplatin was used as a reference and tested under the same experimental conditions. In addition, the cytotoxicity was also evaluated for shorter time of exposure (24 h) towards PSN‐1 cancer cells (Table S5).
as §3

[9] = PSN-1 cells, 24 h, read-out: IC50 (µM) ± SD
[10] = PSN‐1 cells, 72 h, read-out: IC50 (μM)±SD

Row | Substance | IC50 (MCF‐7 ADR cells) [µM] | RF=IC50 (resistant cells)/IC50 (wild‐type cells) (MCF‐7 ADR cells) | IC50 [1, 9] [µM] | IC50 [1, 10] [µM] | IC50 [2] [µM] | IC50 [3] [µM] | IC50 [4] [µM] | IC50 [5] [µM] | eq. CO released ([6]; 0-24 h) [eq.] | eq. CO released ([6]; 24-48 h) [eq.] | % residual complex [6] | residual TrxR cellular activity [7] [%] | IC50 [8] [µM]
1 | [Fe2Cp2(CO)2(μ‐CO){μ‐CNBn2}]X [[5H]CF3SO3] | 44.7 ± 6.1 | 1.2 | 112 ± 2.4 | 33.7 ± 4.2 | 37.4 ± 5.2 | 36.2 ± 6.1 | 30.8 ± 5.1 | 32.5 ± 4.8 | 0.29 ± 0.06 | 0.27 ± 0.02 | 80-84% |  | 
2 | [Fe2Cp2(CO)2(μ‐CO){μ‐CNEt(2‐naphthyl)}]BF4 [[4G]BF4] | 26.9 ± 5.1 | 1.3 | 69.5 ± 2.1 | 25.6 ± 4.5 | 38.8 ± 6.9 | 21.4 ± 3.6 | 26.2 ± 5.6 | 22.9 ± 5.8 |  |  |  |  | 
3 | [Fe2Cp2(CO)2(μ‐CO){μ‐CNMe(1H‐indol‐6‐yl)}]CF3SO3 [[2A]CF3SO3] | 84.5 ± 8.5 | 1.3 | 144 ± 16 | 54.3 ± 6.2 | 55.5 ± 4.8 | 63.2 ± 5.5 | 50.8 ± 6.1 | 69.5 ± 6.7 |  |  |  |  | 
4 | [Fe2Cp2(CO)2(μ‐CO){μ‐CNMe(4‐C6H4OMe)}]CF3SO3 [[2D]CF3SO3] | 22.6 ± 4.2 | 1.6 | 35 ± 2 | 16.2 ± 2.9 | 21.3 ± 3.1 | 14.3 ± 2.6 | 15.5 ± 2.6 | 15.6 ± 3.5 |  |  |  | 39 | 16.6
5 | [Fe2Cp2(CO)2(μ‐CO){μ‐CNMe(C6H11)}]X [[2C]CF3SO3] | 23.3 ± 4.1 | 1.3 | 94.2 ± 3.8 | 15.3 ± 2.7 | 28.4 ± 5.4 | 17.3 ± 3.3 | 16.8 ± 2.1 | 9.2 ± 1.8 | 0.25 ± 0.02 | 0.23 ± 0.04 | 83-86% | 57 | 17.4
6 | [Fe2Cp2(CO)2(μ‐CO){μ‐CNMe(CH2CHCH2)}]X [[3F]CF3SO3] | > 100 |  | > 200 | > 100 | > 100 | > 100 | > 100 | > 100 | 0.22 ± 0.06 | 0.15 ± 0.01 | 87-88% |  | > 100
7 | [Fe2Cp2(CO)2(μ‐CO){μ‐CNMe(CH2PO3Et2)}]X [[2B]BF4] | > 100 |  | > 200 | > 100 | > 100 | > 100 | > 100 | > 100 |  |  |  |  | > 100
